Read-outs that look alike come from different tables or passages of the source.
Experiments:
tyramine oxidase [1] = test: Effect of various substances on the activity of tyramine oxidase; assay type: biochemical, Arthrobacter sp. B-0813
Experimental: (§1) An enzyme solution (0.05 ml) is added to a reaction mixture (0.5 ml) consisting of the following, and the volume is increased to 1.0 ml by adding water and the mixture is incubated at 37° C. for 10 minutes.
(§2) Water (0.1 ml) is added in place of enzyme solution as a control. The reaction mixture is measured at 490 nm.
(§3) Enzyme activity is calculated by the following equation: [formula] wherein Δ490 nm is the absorption value at Δ490 nm for 10 minutes, and f is the dilution ratio.

tyramine oxidase [2] = test: Substrate specificity of tyramine oxidase; assay type: biochemical, Arthrobacter sp. B-0813; set-up: Relative activity (%) as substrate: concentration or dose not given beside the values; settings: for Relative activity (%) as substrate: substrate added to the reaction mixture, tyramine = 100.0
Experimental: as §1, §2, §3
Substrate specificity was measured by adding various substrates to the reaction mixture.

tyramine oxidase [3] = test: Km-value of tyramine oxidase; assay type: biochemical, Arthrobacter sp. B-0813; settings: substrate tyramine
Experimental: as §1

[4] = test system: Arthrobacter sp. B-0813 FERM-P No. 6240; assay type: cell-based; settings: arthrobacter culture
Experimental: A medium (100 ml, pH 7.5) comprising by weight soybean oil 0.8%, corn steep liquor 1.0%, meat extract 0.1%, polypeptone 1.0%, NaCl 0.3% and β-phenylethylamine 0.15% was put into a 500 ml Erlenmeyer flask and sterilized at 120° C. for 20 minutes. Arthrobacter sp. B-0813 FERM-P No. 6240 was inoculated into the medium and the mixture was cultured at 30° C. for 20 hours to prepare a seed culture. The medium containing the same components (20 lit.) together with added 0.2% of antifoam agent (silicone AF-145), (Asahi Chem.) was poured into a 30 lit. jar fermenter and the above two flasks of seed culture were inoculated therein, then the medium was aerobically cultured with agitation at 250 rpm and with 20 lit./min. aeration for 20 hours. The tyramine oxidase activity of the cultured broth was 1.3 U/ml.
When tyramine or butylamine was added to the medium, a more than 200-fold increase in the yield of enzyme was observed as compared with no addition of these amines. The amount of such addition is 0.1-0.2%, preferably 0.15%. The culturing temperature is generally 25°-35° C. and the culturing time is 10-30 hours.

[5] = amount added 5 mM, control (no addition) = 100.0
[6] = amount added 0.025 mM, control (no addition) = 100.0

Compound | Relative Activity (%) (tyramine oxidase [1]; [5]) | Relative activity (%) as substrate (tyramine oxidase [2]) | other results
O=C(O)CN(CCN(CC(=O)O)CC(=O)O)CC(=O)O [EDTA] |  |  | Relative Activity (%) (tyramine oxidase [1]): 100.0%
[Cl-].[Cl-].[Co+2] [CoCl2] | 86.2% |  | 
NCCc1ccc(O)cc1 [Tyramine, p-hydroxyphenylethylamine] |  | 100.0% | Activity of the enzyme on the substrate (in words) (tyramine oxidase [2]): specific activity; Km (tyramine oxidase [3]): 27 µM; Increase in the yield of enzyme compared with no addition of these amines [4]: more than 200 fold
CCCCCCCCCCCCCCCC[N+](C)(C)C.[Cl-] [Cetyltrimethylammonium chloride] |  |  | Relative Activity (%) (tyramine oxidase [1]; [6]): 0.0%
Cc1cc2nc3c(=O)[nH]c(=O)nc-3n(C[C@H](O)[C@H](O)[C@H](O)COP(=O)(O)O)c2cc1C [FMN, flavin mononucleotide] |  |  | Effect of addition on the activity of the enzyme (in words) (tyramine oxidase [1]): increases the activity; Relative Activity (%) (tyramine oxidase [1]; amount added 0.01 mM, control (no addition) = 100.0): 108.8%
Cc1cc2nc3c(=O)[nH]c(=O)nc-3n(C[C@H](O)[C@H](O)[C@H](O)COP(=O)(O)OP(=O)(O)OC[C@H]3O[C@@H](n4cnc5c(N)ncnc54)[C@H](O)[C@@H]3O)c2cc1C [FAD] |  |  | Relative Activity (%) (tyramine oxidase [1]; amount added 0.1 mM, control (no addition) = 100.0): 75.4%
[Cl-].[Li+] [LiCl] | 82.8% |  | 
[Ca+2].[Cl-].[Cl-] [CaCl2] | 86.2% |  | 
Triton X-100 |  |  | Relative Activity (%) (tyramine oxidase [1]; [6]): 96.7%
CCN [Ethylamine] |  | 0.0% | 
NCc1ccccc1 [Benzylamine] |  | 0.0% | 
[Ba+2].[Cl-].[Cl-] [BaCl2] | 96.6% |  | 
[Cl][Mn][Cl] [MnCl2] | 82.8% |  | 
[N-]=[N+]=[N-].[Na+] [NaN3] | 98.3% |  | 
NCCc1ccc(Cl)cc1 [p-chlorophenylethylamine] |  | 47.9% | Activity of the enzyme on the substrate (in words) (tyramine oxidase [2]): activity
[Na+].[Na+].[O]=[Mo](=[O])([O-])[O-] [NaMoO4] | 39.7% |  | 
Laurylbenzene sulfonate [Laurylbenzene sulfonate (LBS)] |  |  | Relative Activity (%) (tyramine oxidase [1]; amount added 0.05 mM, control (no addition) = 100.0): 63.9%
CN [Methylamine] |  | 0.0% | 
Cl.N [NH4 Cl] | 96.6% |  | 
NCCc1ccccc1 [β-phenylethylamine] |  | 54.7% | Activity of the enzyme on the substrate (in words) (tyramine oxidase [2]): activity
O=C(O)c1cc[c]([Hg][Cl])cc1 [p-chloromercuribenzoate (PCMB), p-chloromercuribenzoate] |  |  | Relative Activity (%) (tyramine oxidase [1]; amount added 0.2 mM, control (no addition) = 100.0): 79.3%
CCCCN [n-butylamine] |  | 45.3% | Activity of the enzyme on the substrate (in words) (tyramine oxidase [2]): activity; Increase in the yield of enzyme compared with no addition of these amines [4]: more than 200 fold

From patent US4496655A, “Process for the production of tyramine oxidase” (Toyo Jozo Kabushiki Kaisha, priority 1981, dated 1985)
